Measurements as given in patent publication US9802907B2, “2-aryl selenazole compound and pharmaceutical composition thereof” (JIANGSU ATOM BIOSCIENCE AND PHARMACEUTICAL CO., LTD., priority 2012, dated 2017).

Molecular target: xanthine oxidase (Bos taurus (Bovine), UniProt P80457)
Details: read-out: Xanthine Oxidase Inhibition Activity (IC50); xanthine oxidase sourced from milk, hypoxanthine substrate, 0.1 M Tris-HCl pH 7.5, 30° C.
Description: The inhibition of the activity of xanthine oxidase (XO) is tested through a coupled enzymatic reaction of xanthine oxidase, horseradish peroxidase (HRP) and a substrate thereof. First, xanthine oxidase oxidizes hypoxanthine to produce xanthine and hydrogen peroxide, and further oxidizes xanthine to produce uric acid and hydrogen peroxide. […] The fluorescence intensity of resorufin is determined by using a fluorescence microplate, which is in direct proportion to the activity of xanthine oxidase.
A certain amount of a test compound and a control compound, febuxostat (by Beijing Lianben Pharm-chemicals Tech. Co., Ltd.) were dissolved in DMSO (by Sinopharm Chemical Reagent Co., Ltd.). A 2.5-fold serial dilution of the test compound was diluted with DMSO in a 96-well polypropylene reaction plate (by Greiner Bio One), so as to obtain a 200-fold dilution. The solution was further diluted in ultrapure water to obtain a 3-fold serial dilution. […]
9 μL reaction solution A and 9 μL 3-fold serial dilution of the test compound were mixed in a 96-well test plate (by Greiner Bio One), placed on a flat plate type oscillator, and mixed at 30° C. for 30 min at 100 rpm. […] The fluorescence intensity at 530 nm exciting light and 590 nm emitted light was determined by using a fluorescence microplate (Perkin Elmer Vitor X4).

Sequence of xanthine oxidase (P80457 whole entry): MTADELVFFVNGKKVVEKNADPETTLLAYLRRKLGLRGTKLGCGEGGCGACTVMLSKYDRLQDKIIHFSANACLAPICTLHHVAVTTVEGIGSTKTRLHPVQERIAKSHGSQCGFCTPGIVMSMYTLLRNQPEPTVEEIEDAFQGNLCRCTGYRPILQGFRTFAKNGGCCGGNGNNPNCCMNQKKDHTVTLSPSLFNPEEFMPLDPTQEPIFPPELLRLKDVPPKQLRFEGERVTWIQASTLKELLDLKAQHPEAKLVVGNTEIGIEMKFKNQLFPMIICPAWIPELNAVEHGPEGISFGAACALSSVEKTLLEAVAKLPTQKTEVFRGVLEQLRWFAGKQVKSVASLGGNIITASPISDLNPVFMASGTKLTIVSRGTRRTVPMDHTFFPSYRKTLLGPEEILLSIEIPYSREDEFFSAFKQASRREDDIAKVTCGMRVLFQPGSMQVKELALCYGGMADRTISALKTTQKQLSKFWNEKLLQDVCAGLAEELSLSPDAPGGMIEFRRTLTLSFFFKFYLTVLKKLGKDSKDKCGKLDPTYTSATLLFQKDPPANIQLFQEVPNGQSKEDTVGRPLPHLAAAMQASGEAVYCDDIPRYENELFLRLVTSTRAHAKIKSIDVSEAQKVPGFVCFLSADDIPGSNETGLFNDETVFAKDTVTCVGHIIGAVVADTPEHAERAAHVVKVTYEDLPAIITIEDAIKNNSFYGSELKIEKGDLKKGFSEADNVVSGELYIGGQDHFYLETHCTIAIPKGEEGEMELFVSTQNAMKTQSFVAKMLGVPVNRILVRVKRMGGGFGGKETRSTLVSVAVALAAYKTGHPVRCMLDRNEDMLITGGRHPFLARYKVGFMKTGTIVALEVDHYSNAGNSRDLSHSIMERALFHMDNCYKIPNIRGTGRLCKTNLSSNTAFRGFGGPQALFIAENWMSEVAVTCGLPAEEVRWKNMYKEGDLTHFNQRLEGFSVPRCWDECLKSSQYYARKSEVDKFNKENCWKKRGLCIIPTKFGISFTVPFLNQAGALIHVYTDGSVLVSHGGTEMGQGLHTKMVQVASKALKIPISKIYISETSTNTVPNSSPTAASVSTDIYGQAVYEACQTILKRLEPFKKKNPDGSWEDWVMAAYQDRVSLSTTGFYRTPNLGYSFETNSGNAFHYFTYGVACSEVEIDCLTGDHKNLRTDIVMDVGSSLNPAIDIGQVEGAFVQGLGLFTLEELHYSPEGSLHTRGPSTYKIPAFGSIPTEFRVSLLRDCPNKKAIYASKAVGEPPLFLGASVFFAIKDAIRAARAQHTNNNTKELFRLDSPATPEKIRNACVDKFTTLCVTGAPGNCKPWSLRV

**Q.** How did the IC50 turn out when “2-[3-bromo-4-(aniline formyl)-phenyl]-4-methyl-selenazole-5-carboxylic acid [Compound 67]” was run?
**A.** The IC50 was over 100 nM.
